Assay results taken from patent US20060003974A1, “Bile acid derived steroidal dimers with amphiphilic topology having antiproliferative activity” (COUNCIL OF SCIENTIFIC AND INDUSTRIAL RESEARCH, priority 2004, published 2006).

Columns and labels:
[1] = test system: human mammary adenocarcinoma (MCF-7); test: MTT cell proliferation assay, MCF-7 cells; assay type: cell-based; conditions: for IC50: Homo sapiens, MCF7, 72 h treatment, MTT, read-out: IC50, reduction in proliferation
Procedure: (§1) Antiproliferative Activity, Materials and methods: Human oral squamous carcinoma HEp-2 and human mammary adenocarcinoma (MCF-7) cell lines were obtained from National Centre for Cell Science, Pune, India. Cells were maintained as a monolayer in nutrient media MEM supplemented with heat inactivated fetal bovine serum (HyClone, Utah, USA) (10%), penicillin (100 U/ml) and streptomycin (100 μg/ml) (Invitrogen Life Technologies, MD, USA). The cells were grown at 37° C. in 5% CO2 and humidified air atmosphere. Stock solutions of all the compounds were prepared in DMSO at a concentration of 10-11.5 mM and afterwards diluted to the required concentration. The 3-(4,5-dimethylthiazol-2-yl)-2,5-diphenyltetrazolium bromide (MTT) was dissolved (1 mg/ml) in MEM (without phenol red) and filtered through a Millipore filter, 0.22 μm, before use. MTT Cell Proliferation Assay: (HEp-2) and (MCF-7) cells were plated at a density of 15,000 cells per well in 96 well tissue culture plates. Cells were allowed to adhere for 24 h at 37° C. and then treated with various concentrations (0, 0.1, 1.0, and 10 μM) of compounds dissolved in DMSO for additional 72 h, in triplicates. In the control wells nutrient medium with correspondent concentration of DMSO only was added to the cells. Thereafter cell proliferation was assessed by replacing treatment medium with 50 μL media containing 1 mg/mL MTT and incubated for 4 h at 37° C. Medium was then aspirated off and formazan crystals were solubilized in […] of isopropanol. The optical density was read on a microplate reader at 570 nm using 630 nm as a reference filter against a blank prepared from cell free wells. Absorbance given by cells treated with the carrier DMSO alone was taken as 100% cell growth. All assays were performed in triplicates. Antiproliferative Activity. The antiproliferative activity of both the compounds 2 and 3 were tested against human cancer cells, HEp-2 and MCF-7 which were grown in vitro. Compound (2) up to a concentration of 10 μM had no effect on the survival of HEp-2 and MCF-7 cells. […] IC50 value for compound (2) was between 2-3 μM.

[2] = test system: Human oral squamous carcinoma HEp-2; test: MTT cell proliferation assay, HEp-2 cells; assay type: cell-based; conditions: for IC50: Homo sapiens, 72 h treatment, MTT, read-out: IC50, reduction in proliferation
Procedure: as §1

Compound | reduction in proliferation ([1]; 0.1-10 μM, 72 h) | IC50 [1] [nM] | growth inhibition at 10 μM ([1]; at 10 μM concentration, 72 h) | reduction in proliferation ([2]; 0.1-10 μM, 72 h) | IC50 [2] [nM] | growth inhibition at 10 μM ([2]; at 10 μM concentration, 72 h) | melting point [°C] | effect on survival of cells ([1]; up to a concentration of 10 μM) | effect on survival of cells ([2]; up to a concentration of 10 μM)
C[C@H](CCC(=O)NCCNC(=O)CC[C@@H](C)[C@H]1CCC2C3CCC4C[C@H](O)CC[C@]4(C)C3C[C@H](O)[C@@]21C)[C@H]1CCC2C3CCC4C[C@H](O)CC[C@]4(C)C3C[C@H](O)[C@@]21C (stereo partly drawn) [Compound 3, N^1,N^2-Ethylenediamine bis [deoxycholic acid amide]] | significant reduction | 2000 to 4000 | totally inhibited | significant reduction | 2000 to 4000 | totally inhibited | 170 | – | –
C[C@H](CCC(=O)NCCNC(=O)CC[C@@H](C)[C@H]1CCC2C3C(C[C@H](O)[C@@]21C)[C@@]1(C)CC[C@@H](O)CC1C[C@H]3O)[C@H]1CCC2C3C(C[C@H](O)[C@@]21C)[C@@]1(C)CC[C@@H](O)CC1C[C@H]3O (stereo partly drawn) [Compound 2, N^1,N^2-Ethylenediamine bis [cholic acid amide]] | – | 2000 to 3000 | – | – | 2000 to 3000 | – | 205 | no effect | no effect
